Data: PubChem BioAssay AID1963970 (Molecular Pharmacology Branch, DTP, NCI, 2024)
pIC50: −log10 of the molar value.

Test system: 931267-113-T-J1-PDC multicell spheroid viability
Assay: Anticancer human tumor 931267-113-T-J1-PDC patient-derived colon adenocarcinoma cell line growth inhibition [PI3K]
Conditions: for pIC50: curve of first compound; for viability, T/C: stronger effect = lower value; active = viability on the fitted dose curve at most 10% of control; inactive = the rest
Method in brief: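 High-throughput combination screen: PI3K inhibitors crossed with targeted small molecules on complex spheroids of tumor cells, HUVEC and MSCs at 37 degrees C, 5% CO2. Top concentration was at or near clinical Cmax (otherwise 10 microM), with half-log decrements.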

[1] = second compound 0.0316 µM, first compound 0.000316 µM
[2] = second compound 0.0316 µM, first compound 0.001 µM
[3] = second compound 0.0316 µM, first compound 0.00316 µM
[4] = second compound 0.0316 µM, first compound 0.01 µM
[5] = second compound 0.0316 µM, first compound 0.0316 µM
[6] = second compound 0.0316 µM, first compound 0.1 µM
[7] = second compound 0.1 µM, first compound 0.000316 µM
[8] = second compound 0.1 µM, first compound 0.001 µM
[9] = second compound 0.1 µM, first compound 0.00316 µM
[10] = second compound 0.1 µM, first compound 0.01 µM
[11] = second compound 0.1 µM, first compound 0.0316 µM
[12] = second compound 0.1 µM, first compound 0.1 µM
[13] = second compound 0.316 µM, first compound 0.000316 µM
[14] = second compound 0.316 µM, first compound 0.001 µM
[15] = second compound 0.316 µM, first compound 0.00316 µM
[16] = second compound 0.316 µM, first compound 0.01 µM
[17] = second compound 0.316 µM, first compound 0.0316 µM
[18] = second compound 0.316 µM, first compound 0.1 µM
[19] = second compound 1 µM, first compound 0.000316 µM
[20] = second compound 1 µM, first compound 0.001 µM
[21] = second compound 1 µM, first compound 0.00316 µM
[22] = second compound 1 µM, first compound 0.01 µM
[23] = second compound 1 µM, first compound 0.0316 µM
[24] = second compound 1 µM, first compound 0.1 µM
[25] = second compound 3.16 µM, first compound 0.000316 µM
[26] = second compound 3.16 µM, first compound 0.001 µM
[27] = second compound 3.16 µM, first compound 0.00316 µM
[28] = second compound 3.16 µM, first compound 0.01 µM
[29] = second compound 3.16 µM, first compound 0.0316 µM
[30] = second compound 3.16 µM, first compound 0.1 µM
[31] = second compound 10 µM, first compound 0.000316 µM
[32] = second compound 10 µM, first compound 0.001 µM
[33] = second compound 10 µM, first compound 0.00316 µM
[34] = second compound 10 µM, first compound 0.01 µM
[35] = second compound 10 µM, first compound 0.0316 µM
[36] = second compound 10 µM, first compound 0.1 µM
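Note: viability read 7 days after compound addition.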

CC(=O)c1c(C)c2cnc(Nc3ccc(N4CCNCC4)cn3)nc2n(C2CCCC2)c1=O + CC(Nc1ncnc2nc[nH]c12)c1cc2cccc(Cl)c2c(=O)n1-c1ccccc1
< 7.00: pIC50 (second compound 0.0316 µM) | pIC50 (second compound 0.1 µM) | pIC50 (second compound 0.316 µM) | pIC50 (second compound 1 µM) | pIC50 (second compound 3.16 µM) | pIC50 (second compound 10 µM)
inactive: viability, T/C [1] 115% | viability, T/C [2] 99% | viability, T/C [3] 96.5% | viability, T/C [4] 101% | viability, T/C [5] 120% | viability, T/C [6] 114% | viability, T/C [7] 106% | viability, T/C [8] 104% | viability, T/C [9] 110% | viability, T/C [10] 99.5% | viability, T/C [11] 110% | viability, T/C [12] 103% | viability, T/C [13] 109% | viability, T/C [14] 105% | viability, T/C [15] 98.1% | viability, T/C [16] 111% | viability, T/C [17] 108% | viability, T/C [18] 94.6% | viability, T/C [19] 104% | viability, T/C [20] 105% | viability, T/C [21] 104% | viability, T/C [22] 114% | viability, T/C [23] 99% | viability, T/C [24] 102% | viability, T/C [25] 106% | viability, T/C [26] 95.7% | viability, T/C [27] 90.7% | viability, T/C [28] 98% | viability, T/C [29] 103% | viability, T/C [30] 96.1% | viability, T/C [31] 97.3% | viability, T/C [32] 94.9% | viability, T/C [33] 98% | viability, T/C [34] 93.3% | viability, T/C [35] 94.7% | viability, T/C [36] 84.3%

CC(C)n1nc(-c2ccc3oc(N)nc3c2)c2c(N)ncnc21 + CC(Nc1ncnc2nc[nH]c12)c1cc2cccc(Cl)c2c(=O)n1-c1ccccc1
< 7.00: pIC50 (second compound 0.0316 µM) | pIC50 (second compound 0.1 µM) | pIC50 (second compound 0.316 µM) | pIC50 (second compound 1 µM) | pIC50 (second compound 3.16 µM) | pIC50 (second compound 10 µM)
inactive: viability, T/C [1] 101% | viability, T/C [2] 103% | viability, T/C [3] 97.8% | viability, T/C [4] 88.7% | viability, T/C [5] 92.6% | viability, T/C [6] 51.7% | viability, T/C [7] 106% | viability, T/C [8] 104% | viability, T/C [9] 92.7% | viability, T/C [10] 89.5% | viability, T/C [11] 79.8% | viability, T/C [12] 55.8% | viability, T/C [13] 113% | viability, T/C [14] 105% | viability, T/C [15] 93% | viability, T/C [16] 94.2% | viability, T/C [17] 86.5% | viability, T/C [18] 54.1% | viability, T/C [19] 95.6% | viability, T/C [20] 98% | viability, T/C [21] 91% | viability, T/C [22] 92.2% | viability, T/C [23] 87.5% | viability, T/C [24] 57% | viability, T/C [25] 93.8% | viability, T/C [26] 95% | viability, T/C [27] 88.4% | viability, T/C [28] 88.8% | viability, T/C [29] 81.8% | viability, T/C [30] 52.5% | viability, T/C [31] 87.5% | viability, T/C [32] 83.9% | viability, T/C [33] 91.6% | viability, T/C [34] 84.3% | viability, T/C [35] 74.8% | viability, T/C [36] 58.9%

CCCS(=O)(=O)Nc1ccc(F)c(C(=O)c2c[nH]c3ncc(-c4ccc(Cl)cc4)cc23)c1F + CC(Nc1ncnc2nc[nH]c12)c1cc2cccc(Cl)c2c(=O)n1-c1ccccc1
inactive: viability, T/C [5] 102% | viability, T/C [6] 101% | viability, T/C (second compound 0.0316 µM, first compound 0.316 µM) 104% | viability, T/C (second compound 0.0316 µM, first compound 1 µM) 125% | viability, T/C (second compound 0.0316 µM, first compound 3.16 µM) 112% | viability, T/C [11] 101% | viability, T/C [12] 111% | viability, T/C (second compound 0.1 µM, first compound 0.316 µM) 103% | viability, T/C (second compound 0.1 µM, first compound 1 µM) 107% | viability, T/C (second compound 0.1 µM, first compound 3.16 µM) 119% | viability, T/C [17] 107% | viability, T/C [18] 103% | viability, T/C (second compound 0.316 µM, first compound 0.316 µM) 109% | viability, T/C (second compound 0.316 µM, first compound 1 µM) 122% | viability, T/C (second compound 0.316 µM, first compound 3.16 µM) 110% | viability, T/C [23] 102% | viability, T/C [24] 93.9% | viability, T/C (second compound 1 µM, first compound 0.316 µM) 113% | viability, T/C (second compound 1 µM, first compound 1 µM) 110% | viability, T/C (second compound 1 µM, first compound 3.16 µM) 109% | viability, T/C [29] 99.2% | viability, T/C [30] 99.9% | viability, T/C (second compound 3.16 µM, first compound 0.316 µM) 102% | viability, T/C (second compound 3.16 µM, first compound 1 µM) 116% | viability, T/C (second compound 3.16 µM, first compound 3.16 µM) 104% | viability, T/C [35] 92.3% | viability, T/C [36] 95.2% | viability, T/C (second compound 10 µM, first compound 0.316 µM) 99.6% | viability, T/C (second compound 10 µM, first compound 1 µM) 108% | viability, T/C (second compound 10 µM, first compound 3.16 µM) 97.7%
5.24: pIC50 (second compound 10 µM)
5.22: pIC50 (second compound 0.0316 µM) | pIC50 (second compound 0.1 µM) | pIC50 (second compound 0.316 µM) | pIC50 (second compound 1 µM)
active: viability, T/C (second compound 0.0316 µM, first compound 10 µM) 4.93% | viability, T/C (second compound 0.1 µM, first compound 10 µM) 4.62% | viability, T/C (second compound 0.316 µM, first compound 10 µM) 3.9% | viability, T/C (second compound 1 µM, first compound 10 µM) 4.52% | viability, T/C (second compound 3.16 µM, first compound 10 µM) 5.3% | viability, T/C (second compound 10 µM, first compound 10 µM) 4.17%
5.23: pIC50 (second compound 3.16 µM)
